This is an account of results in US11213498B2, “Aqueous formulation comprising paracetamol and ibuprofen” (Hyloris Pharmaceuticals SA, priority 2014, dated 2022).

For data set [1] the following is noted: cited from earlier work.
Data set [2] in a line: Amount of paracetamol at various points in time and different pH. To be noted: pH range 6.3-7.3, various points in time. Type of data set: physicochemical. From the text:
The amount of paracetamol was studied at varies points in time and for different pH's.

Data set [3] is described as follows: Dissolution of sodium ibuprofen 2H2O in the formulation Paracetamol - Ibuprofen at varying pH. To be noted: in the formulation 3 mg/ml Paracetamol 10 mg/ml Ibuprofen. Type of data set: physicochemical.
Assay in data set [4]: as above
Format: physicochemical. The protocol:
In a further experiment the dissolution of sodium ibuprofen 2H2O was studied in combination with paracetamol at a concentration of 10 mg paracetamol per liter.

Data set [5] in a line: Dissolution of sodium ibuprofen 2H2O alone in water at gradually decreased pH (precipitation observed). Type of data set: physicochemical. As to conditions: for Dissolved: 3.85 mg/ml alone in water; for Dissolution: in water after 1 month storage at 25° C. The protocol: Precipitation of ibuprofen is observed once pH is at 5.75. The Ibuprofen solutions were stored for 1 month at 25° C. They were again observed for signs of precipitation.

Like-named read-outs stand apart in the source and are kept apart here.

On to `CC(C)Cc1ccc(C(C)C(=O)O)cc1` (stereo not drawn) [Ibuprofen, 2-(p-isobutylphenyl)propionic acid], for which, in data set [1] (at pH 5.5 to 6.0), the Precipitation of ibuprofen entry is on record as “precipitates”. Moreover, the Solubility in water entry in data set [1] was “very poorly soluble”.
In the case of `CC(=O)Nc1ccc(O)cc1` [paracetamol, N-(4-hydroxyphenyl)acetamide], the values for the Degradation of paracetamol entry in data set [2] and in data set [1] (at pH 7) were “minimal degradation” and “significant”, respectively. The “pH at which rate of degradation of paracetamol is minimal” value in data set [1] (aqueous solution (Koshy et al., 1961)) is listed as roughly 6.
`CC(C)Cc1ccc(C(C)C(=O)O)cc1` (stereo not drawn) [sodium ibuprofen 2H2O]: the Dissolved entry was “Yes” in data set [3] (pH 6.2); “Yes” in data set [3] (pH 6.3); “Yes” in data set [3] (pH 6.4); “Yes” in data set [3] (pH 6.6); “Yes” in data set [3] (pH 7); “No” in data set [5] (pH 3). Further, the Dissolved entry in data set [5] (pH 4) was “No”; in data set [5] (pH 5) it was “No”; in data set [5] (pH 5.5), “No”; in data set [5] (pH 5.8), “Yes”; in data set [5] (pH 6), “Yes”; in data set [5] (pH 6.2) it was “Yes”. Moreover, the Dissolved result in data set [5] (pH 6.4), in data set [5] (pH 6.6), in data set [5] (pH 6.8), in data set [5] (pH 7) and in data set [5] (pH 7.5) was “Yes” in each case. Further, the Dissolution result in data set [4] (1 month storage at 25° C., pH 6.2) is “No”; in data set [4] (1 month storage at 25° C., pH 6.3) it was “Yes”; in data set [4] (1 month storage at 25° C., pH 6.4), “Yes”; in data set [4] (1 month storage at 25° C., pH 6.6) it was “Yes”; in data set [4] (1 month storage at 25° C., pH 7), “Yes”; in data set [4] (6 months, 25° C., pH 6.3) it was “Yes”. Moreover, the Dissolution entry in data set [4] (6 months, 25° C., pH 6.4) is “Yes”; in data set [4] (6 months, 25° C., pH 6.6), “Yes”; in data set [4] (6 months, 25° C., pH 7), “Yes”; in data set [5] (pH 5.8), “No”; in data set [5] (pH 6), “No”; in data set [5] (pH 6.2) it was “Yes”. For the same compound, the Dissolution result in data set [5] (pH 6.4), in data set [5] (pH 6.6), in data set [5] (pH 6.8), in data set [5] (pH 7) and in data set [5] (pH 7.5) was “Yes” in each case. Besides, in data set [5] (3.85 mg/ml in water, pH gradually decreased from 8.80), the “pH at which precipitation of ibuprofen is observed” value turned out to be 5.75. Moreover, the Precipitation entry was “showed precipitation” in data set [5] (solution at pH 6, stored for 1 month at 25° C.) and “precipitation was absent” in data set [5] (solution at pH 6.2, stored for 1 month at 25° C.).
